The values below come from patent US10064848B2, “Pyridic ketone derivatives, method of preparing same, and pharmaceutical application thereof” (Shanghai Hengrui Pharmaceutical Co., Ltd., priority 2013, dated 2018).

The target in one experiment is T1, CYP1A2 (Homo sapiens, UniProt P05177).
T1 construct: from tissue; host or cells: human liver microsomes
T1 sequence (P05177 1-516): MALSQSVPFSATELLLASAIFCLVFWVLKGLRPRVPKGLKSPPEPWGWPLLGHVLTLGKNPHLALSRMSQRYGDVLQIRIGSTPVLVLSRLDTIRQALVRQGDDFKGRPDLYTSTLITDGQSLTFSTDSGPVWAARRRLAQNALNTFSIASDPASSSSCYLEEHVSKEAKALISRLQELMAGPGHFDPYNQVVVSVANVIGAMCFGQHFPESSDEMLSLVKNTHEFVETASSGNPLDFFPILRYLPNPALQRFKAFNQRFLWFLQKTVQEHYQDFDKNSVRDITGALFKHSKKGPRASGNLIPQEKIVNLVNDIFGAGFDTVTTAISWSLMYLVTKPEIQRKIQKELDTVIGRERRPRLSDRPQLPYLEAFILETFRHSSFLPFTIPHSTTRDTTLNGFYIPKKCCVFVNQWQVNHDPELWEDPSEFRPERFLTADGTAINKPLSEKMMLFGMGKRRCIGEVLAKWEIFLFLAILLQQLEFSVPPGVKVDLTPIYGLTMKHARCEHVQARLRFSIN
Description: In vitro CYP enzyme inhibition, human liver microsomes. To be noted: probe Phenacetin, single point method. Type of experiment: in vitro ADME. How it is done: (§1) Human liver microsome incubation system was used to reflect the activity of enzymes based on the amount of metabolites produced. Enzyme inhibition of the test compounds was investigated on CYP1A2, CYP2C9, […], CYP3A4m, CYP3A4t and CYP2C19, and IC50 values (a concentration of the test compound that is required for 50% inhibition of enzyme activity) were measured. […] The appropriate amount of test compound standard sample was weighed, and diluted with DMSO to 50 mM to obtain stock solution I. The stock solution I was diluted with PBS to 100 μM to obtain the reaction liquid which is to be used in incubation. [table] The reaction mixture was prepared: 60 μL [table] The above mixture was preincubated for 5 minutes at 37° C., followed by addition of 40 μL of NADPH (2.5 mM, PBS formulation). The mixture solution was incubated for 20 minutes at 37° C. All incubated samples were set to double samples. 300 μL ice-cold acetonitrile was added to terminate the reaction. The reaction solution was added with 100 μl internal standard, mixed uniformly, and centrifuged for 10 minutes at 3500 rpm. The supernatant was transferred to the LC-MS/MS analysis. The activity of enzymes was reflected by the production amount of metabolites. Using a single point method, the formula was calculated as follows: According to the known literature: IC50>10 μM belongs to weaker inhibition, 1 μM<IC50<10 μM belong to moderate inhibition, IC50<1 μM belong to strong inhibition.
(Liver microsomes are a subcellular fraction often used to study metabolism.)

For a further experiment, the target named is T2, CYP3A4m (Homo sapiens, UniProt P08684).
T2 construct: from tissue; host or cells: human liver microsomes
T2 sequence (P08684 whole entry): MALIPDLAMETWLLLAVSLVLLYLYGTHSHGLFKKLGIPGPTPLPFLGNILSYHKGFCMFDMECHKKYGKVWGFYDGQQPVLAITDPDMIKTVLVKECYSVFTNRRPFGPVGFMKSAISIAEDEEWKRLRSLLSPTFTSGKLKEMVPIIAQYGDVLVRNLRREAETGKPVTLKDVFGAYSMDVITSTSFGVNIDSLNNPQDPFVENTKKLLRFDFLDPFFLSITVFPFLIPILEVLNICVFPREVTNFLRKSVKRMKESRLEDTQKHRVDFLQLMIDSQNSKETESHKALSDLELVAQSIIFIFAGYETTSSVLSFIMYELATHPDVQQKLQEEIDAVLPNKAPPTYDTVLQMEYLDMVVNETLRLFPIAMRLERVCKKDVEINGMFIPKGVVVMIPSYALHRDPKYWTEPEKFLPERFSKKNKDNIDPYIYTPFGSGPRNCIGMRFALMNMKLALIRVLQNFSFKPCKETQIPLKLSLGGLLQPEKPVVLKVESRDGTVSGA
The experiment is described as above. Type of experiment: in vitro ADME. To be noted: probe Midazolam, single point method. How it is done: as §1

The target in the next experiment is T3, CYP2C9 (Homo sapiens, UniProt P11712).
T3 construct: from tissue; host or cells: human liver microsomes
T3 sequence (P11712 whole entry): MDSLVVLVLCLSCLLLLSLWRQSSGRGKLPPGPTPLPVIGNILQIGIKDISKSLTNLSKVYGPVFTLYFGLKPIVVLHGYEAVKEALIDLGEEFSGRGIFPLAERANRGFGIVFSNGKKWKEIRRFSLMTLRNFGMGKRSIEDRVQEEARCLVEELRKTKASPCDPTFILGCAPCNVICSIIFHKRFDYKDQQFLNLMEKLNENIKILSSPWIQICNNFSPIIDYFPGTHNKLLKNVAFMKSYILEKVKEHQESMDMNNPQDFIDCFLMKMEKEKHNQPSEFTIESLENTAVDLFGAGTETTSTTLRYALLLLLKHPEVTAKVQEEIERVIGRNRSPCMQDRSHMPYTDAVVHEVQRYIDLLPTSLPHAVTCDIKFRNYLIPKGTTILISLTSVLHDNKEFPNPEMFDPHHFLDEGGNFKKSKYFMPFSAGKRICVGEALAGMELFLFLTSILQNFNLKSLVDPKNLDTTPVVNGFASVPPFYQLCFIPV
The experiment is described as above. To be noted: probe Diclofenac, single point method. In kind it is in vitro ADME. How it is done: as §1

Another experiment addresses T4, CYP2C19 (Homo sapiens, UniProt P33261).
T4 construct: from tissue; host or cells: human liver microsomes
The description is as above. In kind it is in vitro ADME. The settings on record: probe (S)-Mephenytoin, single point method. The method, then: as §1

Another experiment addresses CYP2C6 (Homo sapiens, UniProt P10635). The experiment is described as above. To be noted: single point method. Type of experiment: in vitro ADME. How it is done:
as §1

The next experiment addresses T5, CYP3A4t (Homo sapiens, UniProt P08684).
T5 construct: from tissue; host or cells: human liver microsomes
The description is as above. In kind it is in vitro ADME. To be noted: probe Testosterone, single point method. How it is done: as §1

For a further experiment, the system named is Colo205 cell. Description: Proliferation inhibition on Colo205 (CCK8). In kind it is cell-based. The settings on record: Homo sapiens, COLO 205, Colo205, 72 hours. An excerpt: Cell line used in the assay: Colo205 (Cell Bank of the Chinese Academy of Sciences, Catalog No. TCHu102).
The following in vitro cell assay is to determine the activity of the compounds of the present invention for inhibiting the proliferation of human colon cancer cell, and the activity is expressed as IC50. General programs of this kind of assay were as follows: First, the cell line to be tested (purchased from Cell Bank of the Chinese Academy of Sciences) was inoculated in a 96-well culture plate with a suitable cell concentration of 4000 cells/mL medium, and was cultured in a carbon dioxide incubator at 37° C., then grown overnight. The medium was replaced by new medium added with a series of concentrations (10000 nM, 1000 nM, 100 nM, 10 nM, 1 nM, 0.1 nM) of the test compound solutions. The plates were placed back in the incubator, and continuously cultured for 72 hours. After 72 hours, CCK8 (Cell Counting Kit-8, Catalog No.: CK04, purchased from colleagues chemical company) method was used to determine the proliferation inhibition activity of the test compounds. IC50 values were calculated from the inhibition data of the test compounds at a series of different concentrations.
The above assay was used to determine the biochemical activity of the compounds of the present invention.

In experiment [1] the target is T6, MEK1 (Recombinant Human Protein) (Homo sapiens, UniProt Q02750).
T6 construct: purchased Invitrogen PV3093
T6 sequence (Q02750 whole entry): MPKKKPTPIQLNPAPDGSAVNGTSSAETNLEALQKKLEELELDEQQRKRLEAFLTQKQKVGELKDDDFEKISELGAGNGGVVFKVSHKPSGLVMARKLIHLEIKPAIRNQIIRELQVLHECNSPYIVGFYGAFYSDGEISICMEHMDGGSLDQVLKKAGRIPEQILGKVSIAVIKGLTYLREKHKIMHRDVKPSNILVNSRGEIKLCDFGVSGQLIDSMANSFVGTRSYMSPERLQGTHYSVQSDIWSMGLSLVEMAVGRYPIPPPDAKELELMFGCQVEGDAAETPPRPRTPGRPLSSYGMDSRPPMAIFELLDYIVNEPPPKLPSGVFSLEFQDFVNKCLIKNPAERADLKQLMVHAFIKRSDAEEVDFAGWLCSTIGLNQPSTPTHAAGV
Description: MEK1 kinase inhibition assay (Z'-LYTE Kinase Assay Kit-Ser/Thr 03 Peptide). To be noted: 4 hours at 37° C, read-out: IC50 for inhibiting MEK kinase (MEK1). Type of experiment: biochemical. How it is done:
MEK1 kinase activity was tested in vitro by the following method.
MEK kinase used in the assay: MEK1 (Recombinant Human Protein, Invitrogen, Catalog No. PV3093).
Kit used in the assay: Z′-LYTE™ Kinase Assay Kit-Ser/Thr 03 Peptide (Invitrogen, Catalog No. PV3176).
The following in vitro assay was used to determine the activity of the compounds of the present invention for inhibiting the […] MEK kinase. The test compound was dissolved in dimethyl sulfoxide to the desired concentration. 1× Buffer A (Invitrogen, Catalog No. PV3189) was prepared, ATP was diluted with 1× Buffer A to obtain 400 μM ATP solution, appropriate amounts of Z′-LYTE™ Ser/Thr 03 Peptide (Invitrogen, Catalog No. PV3200), MEK kinase (MEK1) Enzymes and 1× Buffer A were mixed, and appropriate amounts of Z′-LYTE™ Ser/Thr 03 phosphoPeptide substrate (Invitrogen, Catalog No. PV3215) and 1× Buffer A were formulated into a mixture to be tested. The 4% DMSO solution of the test compound was prepared from 1× buffer and DMSO solution of the test compound. 2.5 μL DMSO solution of the test compound was added to a reaction well, and then 1× Buffer A, 2.5 μL of 400 μM ATP solution, 5 μL of enzyme and substrate mixture were added to become a 10 μL of reaction system. The reaction system was incubated for 4 hours at 37° C., and a mixture was prepared according to Reagent A:Buffer B=1:1024. 5 μL of a mixture of Reagent A (Invitrogen, Catalog No. PV3295) and Buffer B (Invitrogen, Catalog No. P3127) was added to a reaction well, the reaction system was incubated for 60 minutes at 25° C. The fluorescence was read by a NovoStar ELISA with excitation wavelength: 400 nm, and emission wavelength: 445 nm and 520 nm.
The activity of the compounds of the present invention: The above assay was used to determine the biochemical activity of the compounds of the present invention for inhibiting MEK kinase (MEK1).

Broadly, the IC50 is the concentration needed to halve the response being measured.

Some results are limits rather than exact numbers.

T5 sequence (P08684 whole entry): as the sequence (P08684 whole entry) above
T4 sequence (P33261 whole entry): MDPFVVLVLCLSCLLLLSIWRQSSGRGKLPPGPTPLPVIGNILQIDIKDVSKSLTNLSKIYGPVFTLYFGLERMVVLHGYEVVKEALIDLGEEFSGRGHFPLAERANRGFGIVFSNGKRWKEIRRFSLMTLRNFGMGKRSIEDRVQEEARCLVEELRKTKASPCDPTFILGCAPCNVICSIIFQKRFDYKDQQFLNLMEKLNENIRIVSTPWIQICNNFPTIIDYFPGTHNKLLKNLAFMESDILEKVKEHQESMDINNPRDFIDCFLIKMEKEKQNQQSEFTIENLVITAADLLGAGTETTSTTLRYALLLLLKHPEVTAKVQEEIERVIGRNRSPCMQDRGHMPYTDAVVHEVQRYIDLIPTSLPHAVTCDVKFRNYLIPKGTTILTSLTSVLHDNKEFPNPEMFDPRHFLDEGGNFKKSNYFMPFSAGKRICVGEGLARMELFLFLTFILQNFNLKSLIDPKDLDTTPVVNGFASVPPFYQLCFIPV
Sequence of CYP2C6 (P10635 whole entry): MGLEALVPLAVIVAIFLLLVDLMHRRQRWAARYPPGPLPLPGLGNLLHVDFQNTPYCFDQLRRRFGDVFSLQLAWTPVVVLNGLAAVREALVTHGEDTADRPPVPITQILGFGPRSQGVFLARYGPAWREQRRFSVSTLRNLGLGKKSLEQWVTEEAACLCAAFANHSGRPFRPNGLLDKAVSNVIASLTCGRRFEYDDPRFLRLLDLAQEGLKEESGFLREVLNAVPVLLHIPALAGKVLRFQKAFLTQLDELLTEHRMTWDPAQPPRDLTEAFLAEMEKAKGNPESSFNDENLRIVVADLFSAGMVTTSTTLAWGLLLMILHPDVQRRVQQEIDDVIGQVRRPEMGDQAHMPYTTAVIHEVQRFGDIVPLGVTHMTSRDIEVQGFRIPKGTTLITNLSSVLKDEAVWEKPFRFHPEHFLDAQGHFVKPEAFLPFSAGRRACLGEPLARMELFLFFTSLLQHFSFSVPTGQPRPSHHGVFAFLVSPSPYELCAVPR

On to `CC(=O)Nc1cccc(Oc2cc(=O)n(C)c(Nc3ccc(I)cc3F)c2C(N)=O)c1C` [Example 4, 4-(3-acetamido-2-methylphenoxy)-2-((2-fluoro-4-iodophenyl)amino)-1-methyl-6-oxo-1,6-dihydropyridine-3-carboxamide], for which the half-maximal inhibitory concentration (IC50) on CYP1A2 was greater than 10000 nM; on CYP3A4m it was greater than 50000 nM; against CYP2C9, greater than 50000 nM; at CYP2C19, greater than 10000 nM; at CYP2C6 it was greater than 50000 nM; at CYP3A4t, greater than 50000 nM. Further, the IC50 was 0.8 nM in the experiment on Colo205 cell and 4 nM in experiment [1].
Turning to `Cc1ccccc1Oc1cc(=O)n(C)c(Nc2ccc(I)cc2F)c1C(N)=O` [Example 23, 4-(2-methylphenoxy)-2-((2-fluoro-4-iodophenyl)amino)-1-methyl-6-oxo-1,6-dihydropyridine-3-carboxamide], the IC50 with Colo205 cell worked out at 0.4 nM; in experiment [1], 4.2 nM.
For `Cc1c(O)cccc1Oc1cc(=O)n(C)c(Nc2ccc(I)cc2F)c1C(N)=O` [Example 24, 4-(3-hydroxy-2-methylphenoxy)-2-((2-fluoro-4-iodophenyl)amino)-1-methyl-6-oxo-1,6-dihydropyridine-3-carboxamide] the same measures were 3.1 nM and 4 nM.
For `Cc1ccc(F)cc1Oc1cc(=O)n(C)c(Nc2ccc(I)cc2F)c1C(N)=O` [Example 25, 4-(5-fluoro-2-methylphenoxy)-2-((2-fluoro-4-iodophenyl)amino)-1-methyl-6-oxo-1,6-dihydropyridine-3-carboxamide] the same measures were 1 nM and 5.9 nM.
On to `Cc1cncc(Oc2cc(=O)n(C)c(Nc3ccc(I)cc3F)c2C(N)=O)c1` [Example 30, 2-((2-fluoro-4-iodophenyl)amino)-1-methyl-4-((5-methylpyridin-3-yl)oxy)-6-oxo-1,6-dihydropyridine-3-carboxamide], for which the IC50 on CYP1A2, on CYP3A4m, on CYP2C9, at CYP2C19, at CYP2C6 and against CYP3A4t was greater than 10000 nM throughout. For the same compound, the IC50 in experiment [1] was determined as 6 nM.
In the case of `Cc1cc(Oc2cc(=O)n(C)c(Nc3ccc(I)cc3F)c2C(N)=O)ccn1` [Example 32, 2-((2-fluoro-4-iodophenyl)amino)-1-methyl-4-((2-methylpyridin-4-yl)oxy)-6-oxo-1,6-dihydropyridine-3-carboxamide], the figures for the IC50 (in the experiment with Colo205 cell; in experiment [1]) were 4 nM and 5.5 nM, respectively.
